# Data as given in patent EP1561465A2, “Methods of use of fluoroquinolone compounds against bacteria” (LG Life Sciences, Ltd., priority 1999, dated 2001).
# Read-outs that look alike come from different tables or passages of the source.
# What was measured:
# Format in all cases: cell-based
# Salmonella spp. [1] = assay: MIC by agar dilution (NCCLS M7-A4), 288 enteropathogenic isolates, eight quinolones; conditions: for MIC: ciprofloxacin MIC ≥[…], read-out: MIC
# Salmonella spp. [2] = assay: MIC by agar dilution (NCCLS M7-A4), 288 enteropathogenic isolates, gemifloxacin and 15 other antimicrobials
# Staphylococcus aureus [3] = assay: MIC by NCCLS broth microdilution, 1100 Japanese clinical isolates 1997-1998; conditions: for MIC50 / MIC90 / MIC: Staphylococcus aureus; for MIC: Staphylococcus aureus quinolone resistant
# Staphylococcus aureus [4] = assay: MIC by agar macrodilution (NCCLS), 373 Gram positive isolates, Athens 1998; conditions: Methicillin-susceptible Staphylococcus aureus (n = 85)
# Enterococcus faecalis = assay: MIC by agar dilution (NCCLS), 411 isolates Buenos Aires 1998-99; conditions: Enterococcus faecalis (n = 48)
# Aeromonas spp. [5] = assay: MIC by agar dilution (NCCLS M7-A4), 288 enteropathogenic isolates, gemifloxacin and 15 other antimicrobials; conditions: Aeromonas spp. N= 16
# Streptococcus pneumoniae [6] = assay: MIC by agar dilution (NCCLS), 411 isolates Buenos Aires 1998-99; conditions: for MIC90 / MIC: Streptococcus pneumoniae; for MIC: Ciprofloxacin-resistant S. pneumoniae, read-out: MIC
# [7] = MIC by agar dilution, Brucella HK agar, 491 anaerobic clinical isolates; conditions: clinical isolates of Bacteroides spp., Prevotella bivia and other Prevotella spp.
# Haemophilus influenzae [8] = assay: MIC by two-fold serial agar dilution, Sensitivity Disk agar-N (Kitasato isolates); conditions: Haemophilus influenzae (24)
# Proteus mirabilis = assay: MIC by NCCLS broth microdilution, 1100 Japanese clinical isolates 1997-1998; conditions: Proteus mirabilis (n=30)
# Haemophilus influenzae [9] = assay: MIC by broth microdilution (NCCLS), dried MicroScan panels, clinical isolates 1998-1999; conditions: for MIC90: Haemophilus influenzae
# Streptococcus pneumoniae [10] = assay: MIC by NCCLS reference broth microdilution, 450 respiratory tract pathogens; conditions: Streptococcus pneumoniae
# Aeromonas spp. [11] = assay: MIC by agar dilution (NCCLS M7-A4), 288 enteropathogenic isolates, eight quinolones; conditions: Aeromonas spp. (n = 16)
# Staphylococcus aureus [12] = assay: microbe, parasite or virus in culture; conditions: for MIC90: read-out: MIC90
# Escherichia coli = assay: MIC by NCCLS broth microdilution, 1100 Japanese clinical isolates 1997-1998; conditions: for MIC50 / MIC90: Escherichia coli
# Hafnia alvei = assay: MIC by agar dilution (NCCLS M7-A4), 288 enteropathogenic isolates, gemifloxacin and 15 other antimicrobials; conditions: Hafnia alvei N= 32
# Streptococcus pneumoniae [13] = assay: MIC by E-test (broth microdilution for gemifloxacin), 107 pneumococcal carrier isolates, Athens 1998; conditions: for MIC Range: in µg/mL (unit assumed); for MIC50 / MIC90: Streptococcus pneumoniae; for MIC90: read-out: MIC90
# Method: Susceptibility testing was performed by agar dilution or epsilometer method (E-test), as recommended by the NCCLS. […] The susceptibility profiles of the strains were assessed using the Epsilometer method (E-test). The isolates were subdivided into two groups according to their penicillin susceptibility patterns (penicillin-susceptible and penicillin-intermediate.
# Enterococcus gallinarum = assay: MIC by NCCLS broth microdilution, 1100 Japanese clinical isolates 1997-1998; conditions: Enterococcus gallinarum, GALLINARUM
# Pseudomonas aeruginosa = assay: MIC by agar dilution (NCCLS), 322 nosocomial Gram negative isolates, Athens 1998; conditions: n = 57 isolates
# [14] = Staphylococcus aureus oxacillin resistant (n=57)
# [15] = Staphylococcus aureus oxacillin susceptible (n=41)
# [16] = Haemophilus influenzae (300 isolates)
# [17] = Streptococcus pneumoniae (n = 100)
# [18] = erythromycin resistant M phenotype (n = 16)
# [19] = erythromycin resistant MLSB phenotype (n = 16)
# [20] = penicillin intermediate (n = 16)
# [21] = penicillin susceptible (n = 20)
# [22] = Staphylococcus aureus, Methicillin-susceptible (9)
# [23] = Escherichia coli ciprofloxacin susceptible (n=37)
# [24] = Penicillin-intermediate S. pneumoniae (n = 24), E-test
# [25] = Penicillin-susceptible S. pneumoniae (n = 107), E-test
smiles,measurement,setting,value
"N[C@@H]1[C@H]2CN(c3nc4c(cc3F)c(=O)c(C(=O)O)cn4-c3ccc(F)cc3F)C[C@@H]12 [Trovafloxacin, trovafloxacin]",MIC,Salmonella spp. [1]; S. hadar (n = 2),0.5 mg/L
same,MIC,Salmonella spp. [1]; S. newport (n = 1),0.5 mg/L
same,MIC,Salmonella spp. [1]; S. virchow (n = 2),0.25 mg/L
same,% Susceptible,Salmonella spp. [1]; Salmonella spp. (n = 106),100%
same,MIC50,Salmonella spp. [1]; Salmonella spp. (n = 106),0.06 mg/L
same,MIC90,Salmonella spp. [1]; Salmonella spp. (n = 106),0.25 mg/L
same,MIC Range,Salmonella spp. [1]; Salmonella spp. (n = 106),≤0.015 to 1 mg/L
same,MIC,"Salmonella spp. [1]; Salmonella, S. tshiongwe (n = 1)",1 mg/L
same,MIC,"Salmonella spp. [2]; S. hadar(2), isolates with MICs for ciprofloxacin ≥[…], read-out: MIC",0.5 mg/L
same,MIC,"Salmonella spp. [2]; S. newport(1), isolate with MIC for ciprofloxacin ≥[…], read-out: MIC",0.5 mg/L
same,MIC,"Salmonella spp. [2]; S. virchow(2), isolates with MICs for ciprofloxacin ≥[…], read-out: MIC",0.25 mg/L
same,MIC (mg/L) Range,Salmonella spp. [2]; Salmonella spp. N= 106,≤0.015 to 1 mg/L
same,MIC,"Salmonella spp. [2]; Salmonella, S. tshiongwe(1), isolate with MIC for ciprofloxacin ≥[…], read-out: MIC",1 mg/L
same,MIC,"Salmonella spp. [2]; Salmonella, read-out: MIC (mg/L) 50%, Salmonella spp. N= 106",0.06 mg/L
same,MIC,"Salmonella spp. [2]; Salmonella, read-out: MIC (mg/L) 90%, Salmonella spp. N= 106",0.25 mg/L
same,MIC Range,Staphylococcus aureus [3]; [14],0.016 to 32 mg/L
same,MIC Range,Staphylococcus aureus [3]; [15],≤0.008 to 0.5 mg/L
same,MIC50,Staphylococcus aureus [3]; [14],1 mg/L
same,MIC90,Staphylococcus aureus [3]; [14],8 mg/L
same,MIC50,Staphylococcus aureus [3]; [15],0.032 mg/L
same,MIC90,Staphylococcus aureus [3]; [15],0.063 mg/L
same,MIC,Staphylococcus aureus [3]; strain TMS1* (spontaneous mutant resistant to ciprofloxacin),0.125 mg/L
same,MIC,"Staphylococcus aureus [3]; strain TMS3, read-out: MIC",128 mg/L
same,MIC,"Staphylococcus aureus [3]; strain TMS4, read-out: MIC",0.5 mg/L
same,MIC,"Staphylococcus aureus [3]; strain TMS5, read-out: MIC",1 mg/L
same,MIC,"Staphylococcus aureus [3]; strain TMS6, read-out: MIC",0.5 mg/L
same,MIC Range,Staphylococcus aureus [4],≤0.03 to 2 mg/L
same,MIC50,Staphylococcus aureus [4]; read-out: MIC50,0.06 mg/L
same,MIC90,Staphylococcus aureus [4]; read-out: MIC90,0.125 mg/L
same,MIC90,Enterococcus faecalis,8 mg/L
same,MIC Range,Enterococcus faecalis,≤0.004 to 16 mg/L
same,MIC (mg/L) Range,Aeromonas spp. [5],≤0.015 to 0.25 mg/L
same,MIC,Aeromonas spp. [5]; read-out: MIC (mg/L) 50%,≤ 0.015 mg/L
same,MIC,Aeromonas spp. [5]; read-out: MIC (mg/L) 90%,0.03 mg/L
same,MIC90,Streptococcus pneumoniae [6],0.125 mg/L
same,MIC Range,Streptococcus pneumoniae [6]; Streptococcus pneumoniae (n = 90),0.016 to 1 mg/L
same,MIC,Streptococcus pneumoniae [6]; Strain 1,0.25 mg/L
same,MIC,Streptococcus pneumoniae [6]; Strain 2,0.025 mg/L
same,MIC,Streptococcus pneumoniae [6]; Strain 3,1 mg/L
same,MIC,Streptococcus pneumoniae [6]; Strain 4,1 mg/L
same,MIC90,"Streptococcus pneumoniae [6]; S. pneumoniae, Penicillin intermediate (n = 17), read-out: MIC90",0.25 mg/L
same,MIC90,"Streptococcus pneumoniae [6]; S. pneumoniae, Penicillin susceptible (n = 69), read-out: MIC90",0.25 mg/L
same,MIC90,"Streptococcus pneumoniae [6]; Streptococcus pneumoniae (n = 90), read-out: MIC90",0.25 mg/L
same,MIC90,[7],1 to 8 mg/L
same,MIC50,Haemophilus influenzae [8],0.016 mg/L
same,MIC90,Haemophilus influenzae [8],0.031 mg/L
same,MIC Range,Haemophilus influenzae [8],≤0.004 to 0.031 mg/L
same,MIC Range,Proteus mirabilis,0.063 to 16 mg/L
same,MIC50,Proteus mirabilis; read-out: MIC50,0.25 mg/L
same,MIC90,Proteus mirabilis; read-out: MIC90,0.5 mg/L
same,MIC50,Haemophilus influenzae [9]; [16],≤ 0.015 mg/L
same,MIC Range,Haemophilus influenzae [9]; [16],≤0.015 to 0.25 mg/L
same,MIC90,Haemophilus influenzae [9]; [16],≤ 0.015 mg/L
same,MIC90,Haemophilus influenzae [9]; β-lactamase negative (234),≤ 0.015 mg/L
same,MIC90,Haemophilus influenzae [9]; β-lactamase positive (66),0.03 mg/L
same,MIC,Streptococcus pneumoniae [10]; [17],0.03 to 0.25 mg/L
same,MIC50,Streptococcus pneumoniae [10]; [17],0.12 mg/L
same,MIC90,Streptococcus pneumoniae [10]; [17],0.12 mg/L
same,MIC,Streptococcus pneumoniae [10]; [18],0.06 to 0.12 mg/L
same,MIC50,Streptococcus pneumoniae [10]; [18],0.06 mg/L
same,MIC90,Streptococcus pneumoniae [10]; [18],0.12 mg/L
same,MIC,Streptococcus pneumoniae [10]; [19],0.06 to 0.12 mg/L
same,MIC50,Streptococcus pneumoniae [10]; [19],0.06 mg/L
same,MIC90,Streptococcus pneumoniae [10]; [19],0.12 mg/L
same,MIC,Streptococcus pneumoniae [10]; multi-drug resistant (n = 16),0.06 to 0.12 mg/L
same,MIC50,Streptococcus pneumoniae [10]; multi-drug resistant (n = 16),0.06 mg/L
same,MIC90,Streptococcus pneumoniae [10]; multi-drug resistant (n = 16),0.12 mg/L
same,MIC,Streptococcus pneumoniae [10]; [20],0.06 to 0.12 mg/L
same,MIC50,Streptococcus pneumoniae [10]; [20],0.12 mg/L
same,MIC90,Streptococcus pneumoniae [10]; [20],0.12 mg/L
same,MIC,Streptococcus pneumoniae [10]; penicillin resistant (n = 18),0.06 to 0.25 mg/L
same,MIC50,Streptococcus pneumoniae [10]; penicillin resistant (n = 18),0.12 mg/L
same,MIC90,Streptococcus pneumoniae [10]; penicillin resistant (n = 18),0.12 mg/L
same,MIC,Streptococcus pneumoniae [10]; [21],0.06 to 0.12 mg/L
same,MIC50,Streptococcus pneumoniae [10]; [21],0.12 mg/L
same,MIC90,Streptococcus pneumoniae [10]; [21],0.12 mg/L
same,% Susceptible,Aeromonas spp. [11],100%
same,MIC50,Aeromonas spp. [11],≤ 0.015 mg/L
same,MIC90,Aeromonas spp. [11],0.03 mg/L
same,MIC Range,Aeromonas spp. [11],≤0.015 to 0.25 mg/L
same,MIC Range,Staphylococcus aureus [12]; Methicillin-resistant (38),0.031 to 16 mg/L
same,MIC Range,Staphylococcus aureus [12]; Methicillin-susceptible (9),0.031 to 0.5 mg/L
same,MIC90,"Staphylococcus aureus [12]; Staphylococcus aureus, Methicillin-resistant (38)",16 mg/L
same,MIC50,Staphylococcus aureus [12]; [22],0.031 mg/L
same,MIC90,Staphylococcus aureus [12]; [22],0.5 mg/L
same,MIC,"Staphylococcus aureus [12]; Staphylococcus aureus, S. aureus KU2240, mutant type Wild (wild strain)",0.063 mg/L
same,MIC,"Staphylococcus aureus [12]; Staphylococcus aureus, S. aureus KU2241, mutant type NorA (efflux-mediated quinolone resistant)",0.063 mg/L
same,MIC,"Staphylococcus aureus [12]; Staphylococcus aureus, S. aureus KU2242, mutant type T (DNA topoisomerase IV)",0.25 mg/L
same,MIC,"Staphylococcus aureus [12]; Staphylococcus aureus, S. aureus KU2243, mutant type G+T (DNA gyrase and topoisomerase IV)",32 mg/L
same,MIC,"Staphylococcus aureus [12]; Staphylococcus aureus, S. aureus KU2244, mutant type G (DNA gyrase)",0.063 mg/L
same,MIC,"Staphylococcus aureus [12]; Staphylococcus aureus, S. aureus KU2246, mutant type T (DNA topoisomerase IV)",0.25 mg/L
same,MIC Range,Escherichia coli; [23],≤0.008 to 0.25 mg/L
same,MIC50,Escherichia coli; Escherichia coli ciprofloxacin resistant (n=5),64 mg/L
same,MIC90,"Escherichia coli; Escherichia coli ciprofloxacin resistant (n=5), values marked *: MIC80 value",64 mg/L
same,MIC50,Escherichia coli; [23],0.016 mg/L
same,MIC90,Escherichia coli; [23],0.032 mg/L
same,MIC,"Hafnia alvei; 24 h, read-out: MIC (mg/L) Range",0.03 to 0.12 mg/L
same,MIC,Hafnia alvei; read-out: MIC (mg/L) 50%,0.06 mg/L
same,MIC,Hafnia alvei; read-out: MIC (mg/L) 90%,0.06 mg/L
same,MIC Range,Streptococcus pneumoniae [13]; [24],0.003-1
same,MIC Range,Streptococcus pneumoniae [13]; [25],0.008-1
same,MIC50,Streptococcus pneumoniae [13],0.125 mg/L
same,MIC90,Streptococcus pneumoniae [13]; [24],0.38 mg/L
same,MIC50,"Streptococcus pneumoniae [13]; Penicillin-susceptible S. pneumoniae (n = 107), E-test, read-out: MIC50",0.094 mg/L
same,MIC90,Streptococcus pneumoniae [13]; [25],0.19 mg/L
same,MIC,Enterococcus gallinarum,0.125 mg/L
same,MIC,"Enterococcus gallinarum; Enterococcus gallinarum (vanC1), strain TMS2, read-out: MIC",0.25 mg/L
same,MIC,"Enterococcus gallinarum; Enterococcus gallinarum (vanC1), strain TMS3, read-out: MIC",0.25 mg/L
same,MIC,"Enterococcus gallinarum; Enterococcus gallinarum (vanC1), strain TMS4, read-out: MIC",0.063 mg/L
same,MIC50,Pseudomonas aeruginosa,2 mg/L
same,MIC90,Pseudomonas aeruginosa,> 64 mg/L
